From patent US7163923B2, “Peptide deformylase activated prodrugs” (Celmed Oncology (USA), Inc., priority 2001, dated 2007)
In brackets after ≈: the same amount, converted by molar mass. Where two headings read alike, the source gives them in different places.

How the values were obtained:
Type in all cases: cell-based
[1] = tested on: M. catarrhalis; test: MIC susceptibility testing (modified NCCLS, 384-well)
Experimental: (§1) The NCCLS (National Committee for Clinical Laboratory Standards), method to determine MIC's of antimicrobial compounds is modified for high-throughput screening. All stocks of tested compounds are prepared in either water or in DMSO depending on solubility. At the highest concentration, DMSO content should not exceed 0.5%. Briefly, twenty 2-fold serial dilutions of test compounds from the highest concentration are made in a 384-well microtiter plate. […] Bacterial growth is determined by the increase of optical density at 600 nm using a microplate reader (Tecan SpectraFluor Plus).

[2] = tested on: P. aeruginosa; test: as above; details: Pseudomonas aeruginosa
Experimental: as §1

[3] = tested on: S. epidermidis; test: as above; details: Staphylococcus epidermidis
Experimental: as §1

[4] = tested on: E. cloacae; test: as above; details: Enterobacter cloacae
Experimental: as §1

[5] = tested on: K. pneumoniae; test: as above; details: Klebsiella pneumoniae
Experimental: as §1

[6] = tested on: H. influenzae; test: as above; details: Haemophilus influenzae
Experimental: as §1

[7] = tested on: E. faecalis; test: as above; details: Enterococcus faecalis
Experimental: as §1

[8] = tested on: E. aerogenes; test: as above; details: Klebsiella aerogenes
Experimental: as §1

[9] = Toxicity to mammalian cells; details: after 16 hours of exposure
Experimental: Mammalian cells were treated with NB2046 as described above.

[10] = tested on: E. coli; test: MIC susceptibility testing (modified NCCLS, 384-well)
Experimental: The NCCLS (National Committee for Clinical Laboratory Standards), method to determine MIC's of antimicrobial compounds is modified for high-throughput screening. All stocks of tested compounds are prepared in either water or in DMSO depending on solubility. At the highest concentration, DMSO content should not exceed 0.5%. Briefly, twenty 2-fold serial dilutions of test compounds from the highest concentration are made in a 384-well microtiter plate. Each well is inoculated with testing bacteria in broth to a final concentration of approximately 1–1.5×10^6 cells/ml. Bacterial growth is determined by the increase of optical density at 600 nm using a microplate reader (Tecan SpectraFluor Plus). The MIC is defined as the lowest concentration at which bacterial growth (equivalent to visible growth) was inhibited after 16 to 18 hours of incubation at the appropriate temperature required for the bacteria growth.
E. coli/TEM—E. coli expressing TEM-1 beta-lactamase; MRSA—Methicillin Resistant S. Aureus; MSSA—Methicillin Sensitive S. Aureus

## CSCCC(NC=O)C(=O)NC(CC(C)C)C(=O)Oc1cc(Cl)ccc1Oc1ccc(Cl)cc1Cl (stereo not drawn) [NB2046, 2-(2-formylamino-4-methylsulfanyl-butyrylamino)-4-methyl-pentanoic acid 5-chloro-2-(2,4-dichloro-phenoxy)-phenyl ester]
[1]; M. catarrhalis ATCC 43627, Exp. #2, Table 3
  MIC: ≦0.125 μg/ml
[1]; M. catarrhalis ATCC 43628, Exp. #2, Table 3
  MIC: ≦0.125 μg/ml
[1]; M. catarrhalis ATCC 49265, Exp. #2, Table 3
  MIC: ≦0.125 μg/ml
[1]; M. catarrhalis ATCC 51584, Exp. #2, Table 3
  MIC: ≦0.125 μg/ml
[1]; Moraxella catarrhalis, ATCC43627, M. catarrhalis ATCC 43627, Exp. #1, Table 3, read-out: MIC
  MIC: ≤ 0.125 µg/mL
[1]; Moraxella catarrhalis, ATCC43628, M. catarrhalis ATCC 43628, Exp. #1, Table 3, read-out: MIC
  MIC: ≤ 0.125 µg/mL
[1]; Moraxella catarrhalis, ATCC49265, M. catarrhalis ATCC 49265, Exp. #1, Table 3, read-out: MIC
  MIC: ≤ 0.125 µg/mL
[1]; Moraxella catarrhalis, ATCC51584, M. catarrhalis ATCC 51584, Exp. #1, Table 3, read-out: MIC
  MIC: ≤ 0.125 µg/mL
[2]; ATCC21726, P. aeruginosa ATCC 21726, Exp. #1, Table 4
  MIC: > 64 µg/mL
[2]; ATCC21726, P. aeruginosa ATCC 21726, Exp. #2, Table 4
  MIC: ≥ 64 µg/mL
[2]; ATCC29872, P. aeruginosa ATCC 29872, Exp. #1, Table 4
  MIC: > 64 µg/mL
[2]; ATCC29872, P. aeruginosa ATCC 29872, Exp. #2, Table 4
  MIC: ≥ 64 µg/mL
[3]; ATCC27626, S. epidermidis ATCC 27626, Exp. #1, Table 3
  MIC: ≤ 0.125 µg/mL
[3]; ATCC27626, S. epidermidis ATCC 27626, Exp. #2, Table 3
  MIC: ≤ 0.125 µg/mL
[3]; ATCC700565, S. epidermidis ATCC 700565, Exp. #1, Table 3
  MIC: 2 µg/mL (≈ 3.56 µM)
[3]; ATCC700565, S. epidermidis ATCC 700565, Exp. #2, Table 3
  MIC: 2 µg/mL (≈ 3.56 µM)
[3]; ATCC700566, S. epidermidis ATCC 700566, Exp. #1, Table 3
  MIC: ≤ 0.125 µg/mL
[3]; ATCC700566, S. epidermidis ATCC 700566, Exp. #2, Table 3
  MIC: ≤ 0.125 µg/mL
[3]; ATCC700578, S. epidermidis ATCC 700578, Exp. #1, Table 3
  MIC: 0.5 µg/mL (≈ 0.89 µM)
[3]; ATCC700578, S. epidermidis ATCC 700578, Exp. #2, Table 3
  MIC: 0.25 µg/mL (≈ 0.445 µM)
[3]; ATCC700583, S. epidermidis ATCC 700583, Exp. #1, Table 3
  MIC: ≤ 0.125 µg/mL
[3]; ATCC700583, S. epidermidis ATCC 700583, Exp. #2, Table 3
  MIC: ≤ 0.125 µg/mL
[4]; ATCC23355, E. cloacae ATCC 23355, Exp. #1, Table 3
  MIC: 0.5 µg/mL (≈ 0.89 µM)
[4]; ATCC23355, E. cloacae ATCC 23355, Exp. #1, Table 4
  MIC: 16 µg/mL (≈ 28.5 µM)
[4]; ATCC23355, E. cloacae ATCC 23355, Exp. #2, Table 3
  MIC: 0.5 µg/mL (≈ 0.89 µM)
[4]; ATCC23355, E. cloacae ATCC 23355, Exp. #2, Table 4
  MIC: 1 µg/mL (≈ 1.78 µM)
[5]; ATCC51503, K. pneumoniae ATCC 51503, Exp. #1, Table 3
  MIC: 8 µg/mL (≈ 14.2 µM)
[5]; ATCC51503, K. pneumoniae ATCC 51503, Exp. #1, Table 4
  MIC: 4 µg/mL (≈ 7.12 µM)
[5]; ATCC51503, K. pneumoniae ATCC 51503, Exp. #2, Table 3
  MIC: 8 µg/mL (≈ 14.2 µM)
[5]; ATCC51503, K. pneumoniae ATCC 51503, Exp. #2, Table 4
  MIC: 8 µg/mL (≈ 14.2 µM)
[5]; ATCC51504, K. pneumoniae ATCC 51504, Exp. #1, Table 3
  MIC: 1 µg/mL (≈ 1.78 µM)
[5]; ATCC51504, K. pneumoniae ATCC 51504, Exp. #2, Table 3
  MIC: 2 µg/mL (≈ 3.56 µM)
[5]; ATCC700721, K. pneumoniae ATCC 700721, Exp. #1, Table 3
  MIC: 2 µg/mL (≈ 3.56 µM)
[5]; ATCC700721, K. pneumoniae ATCC 700721, Exp. #1, Table 4
  MIC: 4 µg/mL (≈ 7.12 µM)
[5]; ATCC700721, K. pneumoniae ATCC 700721, Exp. #2, Table 3
  MIC: 2 µg/mL (≈ 3.56 µM)
[5]; ATCC700721, K. pneumoniae ATCC 700721, Exp. #2, Table 4
  MIC: 8 µg/mL (≈ 14.2 µM)
[6]; ATCC33533, H. influenzae ATCC 33533, Exp. #1, Table 4
  MIC: 64 µg/mL (≈ 114 µM)
[6]; ATCC33533, H. influenzae ATCC 33533, Exp. #2, Table 4
  MIC: ≥ 64 µg/mL
[7]; ATCC49757, E. faecalis ATCC 49757, Exp. #1, Table 4
  MIC: 64 µg/mL (≈ 114 µM)
[7]; ATCC49757, E. faecalis ATCC 49757, Exp. #2, Table 4
  MIC: 32 µg/mL (≈ 56.9 µM)
[7]; ATCC700802, E. faecalis ATCC 700802, Exp. #1, Table 4
  MIC: 32 µg/mL (≈ 56.9 µM)
[7]; ATCC700802, E. faecalis ATCC 700802, Exp. #2, Table 4
  MIC: 32 µg/mL (≈ 56.9 µM)
[8]; ATCC13048, E. aerogenes ATCC 13048, Exp. #1, Table 3
  MIC: 1 µg/mL (≈ 1.78 µM)
[8]; ATCC13048, E. aerogenes ATCC 13048, Exp. #2, Table 3
  MIC: 1 µg/mL (≈ 1.78 µM)
[8]; ATCC29009, E. aerogenes ATCC 29009, Exp. #1, Table 3
  MIC: 0.25 µg/mL (≈ 0.445 µM)
[8]; ATCC29009, E. aerogenes ATCC 29009, Exp. #2, Table 3
  MIC: ≤ 0.125 µg/mL
[8]; ATCC29751, E. aerogenes ATCC 29751, Exp. #1, Table 3
  MIC: 2 µg/mL (≈ 3.56 µM)
[8]; ATCC29751, E. aerogenes ATCC 29751, Exp. #2, Table 3
  MIC: 1 µg/mL (≈ 1.78 µM)
[8]; ATCC35028, E. aerogenes ATCC 35028, Exp. #1, Table 3
  MIC: 4 µg/mL (≈ 7.12 µM)
[8]; ATCC35028, E. aerogenes ATCC 35028, Exp. #1, Table 4
  MIC: 32 µg/mL (≈ 56.9 µM)
[8]; ATCC35028, E. aerogenes ATCC 35028, Exp. #2, Table 3
  MIC: 2 µg/mL (≈ 3.56 µM)
[8]; ATCC35028, E. aerogenes ATCC 35028, Exp. #2, Table 4
  MIC: 16 µg/mL (≈ 28.5 µM)
[9]
  IC50 at 16 h: ~30 µM
[10]; E. coli, Exp. #2, Table 4
  MIC: 16 µg/mL (≈ 28.5 µM)
[10]; E. coli/Tem-1 (expressing TEM-1 beta-lactamase), Exp. #1, Table 4
  MIC: 16 µg/mL (≈ 28.5 µM)
[10]; E. coli/Tem-1 (expressing TEM-1 beta-lactamase), Exp. #2, Table 4
  MIC: 16 µg/mL (≈ 28.5 µM)
[10]; Escherichia coli, E. coli, Exp. #1, Table 4, read-out: MIC
  MIC: 16 µg/mL (≈ 28.5 µM)
